Experiments:
[1] = tested on: PMA-induced release of HB-EGF from U-937 cells; assay: ELISA-based HB-EGF release assay, PMA-stimulated U-937 cells; assay type: cell-based; details: Homo sapiens, murine (m) and chimeric (ch) antibodies 3 μg/ml, Batimastat 10 μM, PMA 25 ng/ml, 6 hours
Experimental: Complementary to Example 29 described above, ELISA-based HB-EGF release assays were performed to verify the inhibitory effects of the antibodies of the present disclosure on PMA-induced release of endogenous HB-EGF from human U-937 cells.
The production of the recombinant antibody material that was used in this example is identical to the one described in Example 25. The ELISA-based HB-EGF release assay that was used in this example is identical with the one described in Example 30, with the only difference, that U-937 (European Collection of Authenticated Cell Cultures, UK) cells were used instead of THP-1 (American Type Culture Collection, USA) cells.

[2] = tested on: PMA-induced release of TNFα from U-937 cells; assay: ELISA-based TNFα release assay, PMA-stimulated U-937 cells; assay type: cell-based; details: Homo sapiens, U-937, 1 h, Batimastat 10 μM, PMA 25 ng/ml
Experimental: In contrast to Example 14 and 17, where the inhibitory effects of the antibodies of the present disclosure on LPS-induced release of endogenous TNFα from human THP-1 cells were tested, this analysis was conducted with recombinantly produced murine antibodies of the present disclosure to verify their inhibitory effects on PMA-induced release of endogenous TNFα from human monocytic U-937 cells.
In brief, on day 1, Nunc black MaxiSorp® 96-well plates (Thermo Fisher Scientific, USA) were coated overnight with 100 μl per well of mouse anti-human TNFα capture antibody (provided as part of the DuoSet ELISA kit) at 4 μg/ml TBS at 4° C. On day 2, the capture antibody solution was removed and MaxiSorp® plates were blocked with 300 μl per well of TBS, 1% BSA at room temperature for 1-2 hours. […] Using an infinite M1000 (Tecan Group, Switzerland) microplate reader, the fluorescence of each well was collected at an excitation wavelength of 435 nm and an emission wavelength of 555 nm. […]

## CNC(=O)[C@H](Cc1ccccc1)NC(=O)[C@H](CC(C)C)[C@H](CSc1cccs1)C(=O)NO [Batimastat]
[1]
  inhibition at 10 µM: 100%
[2]; murine (m) and chimeric (ch) antibodies 3 μg/ml
  inhibition at 10 µM: 98.7%
[2]; recombinant murine antibodies 1 μg/ml
  inhibition at 10 µM: 100%

— US20240174744A1, “METHODS OF TREATMENT USING PROTEIN BINDERS TO IRHOM2 EPITOPES” (SCIRHOM GMBH, priority 2021, published 2024)
